{
  "source": "paper PMC7180948",
  "about": "“New Insights into 4-Anilinoquinazolines as Inhibitors of Cardiac Troponin I–Interacting Kinase (TNNi3K)” (Molecules, 2020)",
  "test_in_all_cases": "biochemical",
  "design_in_all_cases": "KINOMEscan competition binding panel (Eurofins DiscoverX), single concentration, % inhibition",
  "conditions_in_all_cases": "read-out: 7 at 1 µM % inhibition",
  "key": {"[1]": {"molecular_target": "T1, RSK1(Kin.Dom.2-C-terminal) (Homo sapiens, UniProt Q15418)", "T1 construct": "gene RPS6KA1; Kin.Dom.2-C-terminal", "in_short": "(§1)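 Binding was profiled in the KINOMEscan panel of over 400 human kinases, with each compound tested at a single concentration of 1 µM to map selectivity.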"}, "MEK4": {"molecular_target": "T2, MEK4 (Homo sapiens, UniProt P45985)", "T2 construct": "gene MAP2K4", "in_short": "as §1"}, "ZAP70": {"molecular_target": "ZAP70 (Homo sapiens, UniProt P43403)", "sequence (P43403 whole entry)": "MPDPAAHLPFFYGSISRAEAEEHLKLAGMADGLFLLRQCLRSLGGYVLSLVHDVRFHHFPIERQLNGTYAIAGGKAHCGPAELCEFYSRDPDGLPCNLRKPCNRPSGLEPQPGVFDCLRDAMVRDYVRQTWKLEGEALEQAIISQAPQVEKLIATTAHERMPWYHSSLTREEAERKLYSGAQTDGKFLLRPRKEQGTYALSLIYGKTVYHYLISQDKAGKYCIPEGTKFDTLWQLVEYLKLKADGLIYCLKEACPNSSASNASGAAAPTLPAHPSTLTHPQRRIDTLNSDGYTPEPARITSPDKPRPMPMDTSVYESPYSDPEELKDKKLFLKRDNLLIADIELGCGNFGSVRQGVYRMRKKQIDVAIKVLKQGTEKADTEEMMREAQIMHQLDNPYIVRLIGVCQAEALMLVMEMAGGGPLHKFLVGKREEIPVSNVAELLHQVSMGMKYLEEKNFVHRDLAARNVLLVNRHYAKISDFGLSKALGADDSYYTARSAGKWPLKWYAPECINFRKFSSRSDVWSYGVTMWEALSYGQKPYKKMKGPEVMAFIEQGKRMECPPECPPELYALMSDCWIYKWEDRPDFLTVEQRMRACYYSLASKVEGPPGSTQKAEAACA", "in_short": "as §1"}, "FYN": {"molecular_target": "FYN (Homo sapiens, UniProt P06241)", "in_short": "as §1"}, "[2]": {"molecular_target": "T3, TYK2(JH1domain-catalytic) (Homo sapiens, UniProt P29597)", "T3 construct": "JH1domain-catalytic", "in_short": "as §1"}, "NIK": {"molecular_target": "T4, NIK (Homo sapiens, UniProt Q99558)", "T4 construct": "gene MAP3K14", "in_short": "as §1"}, "ERK1": {"molecular_target": "T5, ERK1 (Homo sapiens, UniProt P27361)", "T5 construct": "gene MAPK3", "in_short": "as §1"}, "ULK2": {"molecular_target": "ULK2 (Homo sapiens, UniProt Q8IYT8)", "in_short": "as §1"}, "FGFR2": {"molecular_target": "FGFR2 (Homo sapiens, UniProt P21802)", "sequence (P21802 whole entry)": "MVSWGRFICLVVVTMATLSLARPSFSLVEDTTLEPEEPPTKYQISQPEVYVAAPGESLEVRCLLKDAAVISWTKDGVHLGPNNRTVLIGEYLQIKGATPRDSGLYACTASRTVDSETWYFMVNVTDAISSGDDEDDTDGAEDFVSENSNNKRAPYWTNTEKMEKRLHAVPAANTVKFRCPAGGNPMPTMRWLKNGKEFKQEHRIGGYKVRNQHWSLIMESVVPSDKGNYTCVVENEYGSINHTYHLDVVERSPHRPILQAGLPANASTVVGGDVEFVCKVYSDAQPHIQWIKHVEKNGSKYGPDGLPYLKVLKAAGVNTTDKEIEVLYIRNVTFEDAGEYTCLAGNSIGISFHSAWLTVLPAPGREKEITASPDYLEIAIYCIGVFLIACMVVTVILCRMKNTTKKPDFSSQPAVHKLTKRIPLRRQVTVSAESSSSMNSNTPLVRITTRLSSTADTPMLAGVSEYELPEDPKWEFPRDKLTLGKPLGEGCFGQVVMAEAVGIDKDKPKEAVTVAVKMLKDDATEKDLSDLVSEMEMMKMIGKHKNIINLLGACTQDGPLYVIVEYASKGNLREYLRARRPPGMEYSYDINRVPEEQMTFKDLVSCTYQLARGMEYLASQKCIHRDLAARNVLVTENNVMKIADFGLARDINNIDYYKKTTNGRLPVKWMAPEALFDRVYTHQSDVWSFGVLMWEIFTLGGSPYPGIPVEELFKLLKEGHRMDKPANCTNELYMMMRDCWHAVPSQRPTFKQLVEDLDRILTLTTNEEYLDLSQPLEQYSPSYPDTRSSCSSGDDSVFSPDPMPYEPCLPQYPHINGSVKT", "in_short": "as §1"}, "[3]": {"molecular_target": "EGFR(L747-S752del, P753S) (Homo sapiens, UniProt P00533, DEL747-752/P753S)", "sequence (P00533 with tags, fused parts or gaps DEL747-752/P753S)": "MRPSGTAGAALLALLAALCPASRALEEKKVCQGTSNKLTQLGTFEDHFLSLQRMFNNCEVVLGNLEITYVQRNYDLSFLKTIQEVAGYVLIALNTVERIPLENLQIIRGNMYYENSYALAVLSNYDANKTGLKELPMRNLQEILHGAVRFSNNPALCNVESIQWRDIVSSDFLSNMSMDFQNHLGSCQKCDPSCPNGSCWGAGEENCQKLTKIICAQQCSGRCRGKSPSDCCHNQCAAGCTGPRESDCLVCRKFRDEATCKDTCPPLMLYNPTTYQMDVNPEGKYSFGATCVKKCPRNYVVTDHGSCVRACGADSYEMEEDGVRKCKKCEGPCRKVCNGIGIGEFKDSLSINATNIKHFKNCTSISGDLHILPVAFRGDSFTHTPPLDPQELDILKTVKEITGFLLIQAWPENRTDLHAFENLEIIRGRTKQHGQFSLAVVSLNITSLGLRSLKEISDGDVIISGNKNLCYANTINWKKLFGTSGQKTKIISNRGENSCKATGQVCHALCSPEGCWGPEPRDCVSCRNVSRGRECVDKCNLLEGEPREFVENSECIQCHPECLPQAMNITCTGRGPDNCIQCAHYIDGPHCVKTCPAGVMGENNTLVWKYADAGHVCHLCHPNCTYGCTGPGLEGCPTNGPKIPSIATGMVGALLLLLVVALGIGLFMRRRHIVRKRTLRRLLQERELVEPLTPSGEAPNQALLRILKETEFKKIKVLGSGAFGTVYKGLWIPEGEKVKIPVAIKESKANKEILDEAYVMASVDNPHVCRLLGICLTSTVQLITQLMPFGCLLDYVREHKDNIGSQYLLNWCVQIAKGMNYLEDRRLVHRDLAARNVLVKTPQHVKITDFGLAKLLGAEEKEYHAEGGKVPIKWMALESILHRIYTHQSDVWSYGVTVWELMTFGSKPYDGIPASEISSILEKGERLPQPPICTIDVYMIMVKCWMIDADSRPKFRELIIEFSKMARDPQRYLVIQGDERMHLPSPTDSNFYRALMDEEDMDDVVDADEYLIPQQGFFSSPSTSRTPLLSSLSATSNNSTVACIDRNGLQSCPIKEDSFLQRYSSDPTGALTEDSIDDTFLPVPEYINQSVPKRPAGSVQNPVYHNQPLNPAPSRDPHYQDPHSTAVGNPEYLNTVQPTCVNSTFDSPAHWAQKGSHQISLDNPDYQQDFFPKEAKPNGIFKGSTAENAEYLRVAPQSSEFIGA", "in_short": "as §1"}, "SLK": {"molecular_target": "SLK (Homo sapiens, UniProt Q9H2G2)", "in_short": "as §1"}, "RIOK1": {"molecular_target": "RIOK1 (Homo sapiens, UniProt Q9BRS2)", "in_short": "as §1"}, "MYO3A": {"molecular_target": "MYO3A (Homo sapiens, UniProt Q8NEV4)", "in_short": "as §1"}, "EGFR(T790M)": {"molecular_target": "EGFR(T790M) (Homo sapiens, UniProt P00533, T790M)", "in_short": "as §1"}, "MERTK": {"molecular_target": "MERTK (Homo sapiens, UniProt Q12866)", "sequence (Q12866 whole entry)": "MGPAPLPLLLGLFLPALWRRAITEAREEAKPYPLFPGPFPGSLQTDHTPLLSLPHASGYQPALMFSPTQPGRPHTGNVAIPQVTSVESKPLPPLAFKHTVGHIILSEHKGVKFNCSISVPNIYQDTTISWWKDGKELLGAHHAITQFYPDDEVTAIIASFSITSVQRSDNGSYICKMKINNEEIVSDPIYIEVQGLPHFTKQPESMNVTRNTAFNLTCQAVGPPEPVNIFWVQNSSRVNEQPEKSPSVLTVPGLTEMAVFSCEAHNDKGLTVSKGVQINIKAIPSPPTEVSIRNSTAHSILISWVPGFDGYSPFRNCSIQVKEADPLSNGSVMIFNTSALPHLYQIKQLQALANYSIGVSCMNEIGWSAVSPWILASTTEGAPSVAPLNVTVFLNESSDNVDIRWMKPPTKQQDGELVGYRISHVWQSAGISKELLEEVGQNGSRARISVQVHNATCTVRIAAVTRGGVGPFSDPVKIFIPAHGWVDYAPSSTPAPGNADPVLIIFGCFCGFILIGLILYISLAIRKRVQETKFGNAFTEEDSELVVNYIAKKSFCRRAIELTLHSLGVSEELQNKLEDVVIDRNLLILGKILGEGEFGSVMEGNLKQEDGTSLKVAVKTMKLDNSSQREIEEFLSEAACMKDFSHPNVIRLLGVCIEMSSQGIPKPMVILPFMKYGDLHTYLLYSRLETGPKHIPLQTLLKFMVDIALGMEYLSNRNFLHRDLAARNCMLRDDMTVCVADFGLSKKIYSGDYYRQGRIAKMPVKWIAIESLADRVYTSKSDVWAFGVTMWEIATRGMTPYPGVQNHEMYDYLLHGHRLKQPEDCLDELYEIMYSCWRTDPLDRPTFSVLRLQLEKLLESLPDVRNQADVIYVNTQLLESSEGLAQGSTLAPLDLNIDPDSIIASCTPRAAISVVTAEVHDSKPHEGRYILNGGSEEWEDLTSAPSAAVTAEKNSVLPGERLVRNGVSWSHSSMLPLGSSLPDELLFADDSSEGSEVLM", "in_short": "as §1"}, "BIKE": {"molecular_target": "T6, BIKE (Homo sapiens, UniProt Q9NSY1)", "T6 construct": "gene BMP2K", "in_short": "as §1"}, "BTK": {"molecular_target": "BTK (Homo sapiens, UniProt Q06187)", "in_short": "as §1"}, "MAP4K4": {"molecular_target": "MAP4K4 (Homo sapiens, UniProt O95819)", "in_short": "as §1"}, "CDK4": {"molecular_target": "CDK4 (Homo sapiens, UniProt P11802)", "sequence (P11802 whole entry)": "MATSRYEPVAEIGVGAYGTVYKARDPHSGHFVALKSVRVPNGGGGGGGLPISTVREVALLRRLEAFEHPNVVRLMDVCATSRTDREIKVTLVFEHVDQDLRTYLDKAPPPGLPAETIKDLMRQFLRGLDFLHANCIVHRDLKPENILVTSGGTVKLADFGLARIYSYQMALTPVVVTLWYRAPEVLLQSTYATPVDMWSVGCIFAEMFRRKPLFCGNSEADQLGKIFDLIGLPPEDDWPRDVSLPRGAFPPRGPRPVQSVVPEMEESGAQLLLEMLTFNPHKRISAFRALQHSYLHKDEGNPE", "in_short": "as §1"}, "CSF1R-autoinhibited": {"molecular_target": "CSF1R-autoinhibited (Homo sapiens, UniProt P07333)", "in_short": "as §1"}, "JNK1": {"molecular_target": "T7, JNK1 (Homo sapiens, UniProt P45983)", "T7 construct": "gene MAPK8", "in_short": "as §1"}, "RIPK4": {"molecular_target": "RIPK4 (Homo sapiens, UniProt P57078)", "in_short": "as §1"}, "PIP5K2C": {"molecular_target": "T8, PIP5K2C (Homo sapiens, UniProt Q8TBX8)", "T8 construct": "gene PIP4K2C", "T8 sequence (Q8TBX8 whole entry)": "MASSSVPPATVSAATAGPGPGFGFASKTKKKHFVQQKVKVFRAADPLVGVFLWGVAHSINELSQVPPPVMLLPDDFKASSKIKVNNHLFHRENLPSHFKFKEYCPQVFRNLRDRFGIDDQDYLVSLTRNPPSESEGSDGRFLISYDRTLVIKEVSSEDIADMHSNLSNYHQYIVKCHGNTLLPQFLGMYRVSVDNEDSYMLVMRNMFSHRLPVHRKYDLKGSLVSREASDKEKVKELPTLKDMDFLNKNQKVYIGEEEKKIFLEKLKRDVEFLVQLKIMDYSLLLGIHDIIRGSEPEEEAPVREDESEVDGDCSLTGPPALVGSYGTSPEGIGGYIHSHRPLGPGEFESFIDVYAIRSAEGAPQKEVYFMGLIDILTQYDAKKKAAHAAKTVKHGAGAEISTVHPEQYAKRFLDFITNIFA", "in_short": "as §1"}, "VRK2": {"molecular_target": "VRK2 (Homo sapiens, UniProt Q86Y07)", "sequence (Q86Y07 whole entry)": "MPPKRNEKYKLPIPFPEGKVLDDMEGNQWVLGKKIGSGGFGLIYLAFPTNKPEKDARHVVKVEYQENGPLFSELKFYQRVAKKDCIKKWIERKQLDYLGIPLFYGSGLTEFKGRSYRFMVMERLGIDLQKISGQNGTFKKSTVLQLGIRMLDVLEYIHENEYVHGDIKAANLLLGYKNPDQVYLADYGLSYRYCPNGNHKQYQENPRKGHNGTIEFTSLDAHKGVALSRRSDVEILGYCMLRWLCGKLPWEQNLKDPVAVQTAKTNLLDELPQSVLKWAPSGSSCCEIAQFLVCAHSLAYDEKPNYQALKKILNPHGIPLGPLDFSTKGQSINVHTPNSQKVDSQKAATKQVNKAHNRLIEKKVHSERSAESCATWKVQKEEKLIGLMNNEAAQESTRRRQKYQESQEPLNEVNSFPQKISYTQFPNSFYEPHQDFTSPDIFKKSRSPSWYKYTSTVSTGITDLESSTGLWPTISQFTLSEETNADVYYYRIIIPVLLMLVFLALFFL", "in_short": "as §1"}},
  "data": [
    {"compound": "CNS(=O)(=O)c1ccc(N(C)C)c(Nc2ncnc3cc(OC)c(OC)cc23)c1", "note": "[compound 7, 3-((6,7-dimethoxyquinazolin-4-yl)amino)-4-(dimethylamino)-N-methylbenzenesulfonamide]", "values": [
      {"measurement": "inhibition at 1 µM", "setting": "[1]", "value": 0, "unit": "%"},
      {"measurement": "inhibition at 1 µM", "setting": "MEK4", "value": 37, "unit": "%"},
      {"measurement": "inhibition at 1 µM", "setting": "ZAP70", "value": 53, "unit": "%"},
      {"measurement": "inhibition at 1 µM", "setting": "FYN", "value": 0, "unit": "%"},
      {"measurement": "inhibition at 1 µM", "setting": "[2]", "value": 0, "unit": "%"},
      {"measurement": "inhibition at 1 µM", "setting": "NIK", "value": 0, "unit": "%"},
      {"measurement": "inhibition at 1 µM", "setting": "ERK1", "value": 0, "unit": "%"},
      {"measurement": "inhibition at 1 µM", "setting": "ULK2", "value": 19, "unit": "%"},
      {"measurement": "inhibition at 1 µM", "setting": "FGFR2", "value": 0, "unit": "%"},
      {"measurement": "inhibition at 1 µM", "setting": "[3]", "value": 0, "unit": "%"},
      {"measurement": "inhibition at 1 µM", "setting": "SLK", "value": 0, "unit": "%"},
      {"measurement": "inhibition at 1 µM", "setting": "RIOK1", "value": 0, "unit": "%"},
      {"measurement": "inhibition at 1 µM", "setting": "MYO3A", "value": 0, "unit": "%"},
      {"measurement": "inhibition at 1 µM", "setting": "EGFR(T790M)", "value": 25, "unit": "%"},
      {"measurement": "inhibition at 1 µM", "setting": "MERTK", "value": 0, "unit": "%"},
      {"measurement": "inhibition at 1 µM", "setting": "BIKE", "value": 0, "unit": "%"},
      {"measurement": "inhibition at 1 µM", "setting": "BTK", "value": 54, "unit": "%"},
      {"measurement": "inhibition at 1 µM", "setting": "MAP4K4", "value": 0, "unit": "%"},
      {"measurement": "inhibition at 1 µM", "setting": "CDK4", "value": 0, "unit": "%"},
      {"measurement": "inhibition at 1 µM", "setting": "CSF1R-autoinhibited", "value": 39, "unit": "%"},
      {"measurement": "inhibition at 1 µM", "setting": "JNK1", "value": 8, "unit": "%"},
      {"measurement": "inhibition at 1 µM", "setting": "RIPK4", "value": 0, "unit": "%"},
      {"measurement": "inhibition at 1 µM", "setting": "PIP5K2C", "value": 0, "unit": "%"},
      {"measurement": "inhibition at 1 µM", "setting": "VRK2", "value": 29, "unit": "%"}
    ]}
  ]
}
